Assay results taken from patent US10898536B2, “Method of inhibiting propionibacterium acnes” (Sami Labs Limited, priority 2016, dated 2021).
≈ marks a conversion by molar mass, not a printed value.

Experiments:
[1] = system: Propionibacterium acnes (ATCC 11827); test: Antibacterial activity by agar well diffusion method (zone of inhibition); type: cell-based; conditions: P. acnes, 48 h anaerobic, inhibition detected in all tested concentrations (10-1.25 μg/mL)
Procedure: In vitro anti-acne activity of isolated compounds 1 and 2 from the stem bark extract of Artocarpus hirsutus were evaluated against acne causing bacterium, Propionibacterium acnes. The antibacterial activity was determined by agar well diffusion method. The minimum inhibitory concentration (MIC) of the compounds were then ascertained by broth micro dilution method.
Microorganisms: Acne causing bacterium Propionibacterium acnes (ATCC 11827) was procured from American type culture collection Rockville, USA.
Media: Reinforced Clostridial Agar (Hi Media; M154) and Reinforced Clostridial broth (Hi Media; M443) were used in the experiments.
The antibacterial activities of isolated compounds were performed by agar well diffusion method. The samples were dissolved in DMSO to obtain a concentration in the range of 0.5-100 mg/mL. Propionibacterium acnes was cultured on Reinforced Clostridial Agar (RCA) M154 procured from Hi Media and incubated at 37° C. for 48 h in an anaerobic chamber providing gas mixture containing 80% nitrogen, 10% carbon dioxide and 10% hydrogen. The bacterial culture was suspended in sterile normal saline and adjusted to 1.0×10^8 CFU/mL (CLSI, M02-A11; Vol. 32 No. 1). The sterile RCA was seeded with the standardized culture of P. acnes and poured into plates. […] The diameter of zone of inhibition around the wells were measured and recorded.

[2] = system: Propionibacterium acnes (ATCC 11827); test: Minimum inhibitory concentration by broth micro dilution method; type: cell-based; conditions: Cutibacterium acnes, ATCC11827, P. acnes, 37° C., 48 h, anaerobic
Procedure: In vitro anti-acne activity of isolated compounds 1 and 2 from the stem bark extract of Artocarpus hirsutus were evaluated against acne causing bacterium, Propionibacterium acnes. The antibacterial activity was determined by agar well diffusion method. The minimum inhibitory concentration (MIC) of the compounds were then ascertained by broth micro dilution method. Microorganisms: Acne causing bacterium Propionibacterium acnes (ATCC 11827) was procured from American type culture collection Rockville, USA. Media: Reinforced Clostridial Agar (Hi Media; […]) and Reinforced Clostridial broth (Hi Media; […]) were used in the experiments. The minimum inhibitory concentrations (MIC) of the isolated compounds against P. acnes were determined by broth micro dilution method. Two-fold dilutions of the isolated compounds were prepared in Reinforced Clostridial broth (RCB) to obtain concentrations in the range of 0.1-2000 μg/mL. The diluted samples were loaded in 96-well micro titre plates. The samples were inoculated with the test culture of P. acnes so that the final concentration of the bacteria in each well is 1×10^5 CFU (CLSI, M11-A8; Vol. 32 No. 5). The plates were incubated under anaerobic conditions at 37° C. for 48 h and thereafter observed for inhibition of bacterial growth. The minimum concentration required for inhibiting the growth of P. acnes was considered as minimum inhibitory concentration (MIC).

[3] = Solubility in solvents (observed when recording NMR); type: physicochemical; conditions: most of the solvents except DMSO
Source text: In ^1H NMR spectrum, the phenolic OH (5-OH) adjacent to the carbonyl was assigned from the downfield signal at δ 13.36 ppm (70%) and 13.33 ppm (30%) and these two signals appeared due to the presence of the two conformers α and β in about 70:30 ratio. The assignment of two doublets at δ 7.15 ppm (˜30%) and 6.94 ppm (˜70%) was crucial in ^1H NMR spectrum. Nonetheless the disappearance of these two signals in D2O exchanged ^1H NMR spectrum (FIG. 5) ascertained that these two doublet signals are nothing but appeared due to the presence of the hydroxyl group (14-OH) sustaining powerful coupling with anomeric proton (14-H). Thus the signals at δ 7.15 ppm (d, ˜30%, β-OH, J=7.5 Hz) and at 6.94 ppm (d, ˜70%, α-OH, J=4.2 Hz) were assigned corresponding to the anomeric 14-OH. Similarly, though the anomeric proton (14-H) was expected to appear as a doublet however owing to further coupling with 14-OH, it appeared as two signals one as double doublets at δ 5.32 ppm (dd, ˜70%, 14-α-H, J=4.2 Hz, 2.1 Hz) and another one as triplet at 4.87 ppm (t, ˜30%, 14-β-H, J=7.8 Hz). The coupling interferences in 14-α/β-H due to 14-OH was disappeared in D2O exchanged ^1H NMR spectrum (FIG. 5) and signals were clearly appeared as doublets at δ 5.28 (d, ˜70%, 14-α-H, J=1.2 Hz) and 4.81 ppm (d, ˜30%, 14-β-H, J=8.7 Hz). As expected the signals ratio ˜70:30 were reflected in the ^13C NMR spectrum also. […]

| Structure (SMILES) | zone of inhibition around the wells [1] | MIC [2] | solubility [3] |
| --- | --- | --- | --- |
| CC(C)=CCc1c(-c2cc(O)c(O)cc2O)oc2c3c(cc(O)c2c1=O)OC(C)(C)C=C3 [Artonine E] | good inhibition | 2 µg/mL (≈ 4.58 µM) | – |
| CCC[C@@H]1C[C@@H](C(=O)N[C@@H]([C@H]2O[C@H](SC)[C@H](O)[C@@H](O)[C@H]2O)[C@H](C)Cl)N(C)C1 [Clindamycin, reference compound] | – | 0.03 µg/mL (≈ 0.0706 µM) | – |
| CC1C(O)Oc2c(O)cc(O)c3c2C1Cc1c-3oc2c3c(cc(O)c2c1=O)OC(C)(C)C=C3 (stereo not drawn) [pyranocycloartobiloxanthone A (α & β), Pyranocycloartobiloxanthone A] | good inhibition | 2 µg/mL (≈ 4.44 µM) | relatively poor |
